Assay results taken from US11684614B2, “Formulations of hydroxypyridonate actinide/lanthanide decorporation agents” (priority 2017, dated 2023).
“And” between values parts separate entries of the source, which are not always exact repeats. Identical values can stand only once.

Test: Repeated-treatment efficacy for removing an intravenous dose of 238Pu (excretion, tissue retention, clinical observations), female and male arms
Assay type: in vivo, Swiss-Webster mice
Conditions: for tissue content of 238Pu compared to saline control group: all analyzed tissues, all dosing regimens; for % Recovered Dose - Feces per Day: group H
Method: The objective of this study was to characterize the efficacy of 3,4,3-L1(1,2-HOPO) at enhancing elimination from an internal plutonium burden in female and male Swiss-Webster mice administered a soluble citrate complex of ^238Pu and treated multiple times, starting at 24 hours after the exposure. Efficacy was evaluated by comparing the tissue contents, urinary and fecal excretions of ^238Pu in treated animals versus untreated animals.
The medical countermeasure 3,4,3-L1(1,2-HOPO) was administered parenterally (ip) or orally (po) via consecutive injections or gavages (six daily or twelve twice daily) starting at 24 hours post contamination at the following four selected doses: 30 μmol/kg ip, 150 μmol/kg po, 300 μmol/kg po, and 600 μmol/kg po (equivalent to respective approximate human doses range of […], using the accepted conversion system of mouse doses into human equivalent doses—HED—based on body surface area). Oral doses also included the permeability enhancer selected during formulation development work.
• Challenge isotope: ^238Pu • Challenge dose: 25 nCi (i.e., approximately 0.8 μCi/kg) • Route of contamination: Intravenous (iv) tail-vein • Route of treatment: Intraperitoneal Injection (ip) or Oral (po) • Frequency of treatment: Multiple (once- or twice-daily for 6 days) doses, starting 24 hr postcontamination • Treatment dose calculation: Dose calculations (mg/kg or μmol/kg) for the decorporation agent were based on the individual body weight measured after contamination. • Study Duration: 11 days, in-life
c. […] Test article and control dose formulations were prepared within 1 day of dose administration, by weighing out the appropriate amount of test article, dispersing in vehicle. For ip solutions, the test article was used alone, while for oral suspensions, a mixture of test article and excipient (90:10, w:w) was used. The pH was adjusted to 7.0-7.4 for ip administration and 5.0-5.5 for oral administration with sterile NaOH. Dose formulations were prepared at room temperature and filter-sterilized. • Storage: 2-8° C.; refrigerated; protected from light. • Characterization: The concentration of each test article formulation was verified by high-performance liquid chromatography-mass spectrometry. • Test Article Handling: Test, reference, and control article formulations were handled with the use of eye protection, gloves, and a protective laboratory coat. • Correct Dose Assurance: The test article was weighed with calibrated balances. The administration of each dose formulation was properly documented, and the amount administered to each animal recorded.
e. Experimental Procedures (In-Life Evaluations and Euthanasia) • Contamination: Single administration by intravenous (iv) tail-vein injection (0.2 mL injection volume) under isoflurane anesthesia. Three standard 0.2 mL injections were performed into polyethylene bottles and pre-loaded with aliquots of concentrated nitric acid on each injection day. Six female and six male mice were culled for necropsy 1 hr post-contamination and were used as standards. A11 standards were processed and counted together with the final samples to allow verification of the contamination dose. • Dose Administration: Single administration by intraperitoneal injection (ip) or oral gavage (po) under isoflurane anesthesia. • Mortality/Morbidity: Assessed at least once daily. • Clinical Observations: Recorded once daily (4 hr post-dose on day of treatment), or more often as clinical signs warranted. […]

[1] = female mice, 30 μmol/kg, IP, 11-day necropsy
[2] = female mice, 30 μmol/kg, IP, 11-day necropsy, over untreated control group
[3] = female mice, 30 μmol/kg, IP, 11-day necropsy, vs untreated control group
[4] = male animals, Day-11 necropsy, animal group H
[5] = male arm table, Day 11 necropsy, animal group H
[6] = male mice, 30 μmol/kg, IP, 11-day necropsy
[7] = male mice, 30 μmol/kg, IP, 11-day necropsy, over untreated control group
[8] = male mice, 30 μmol/kg, IP, 11-day necropsy, vs untreated control group

O=C(O)CN(CCN(CC(=O)O)CC(=O)O)CCN(CC(=O)O)CC(=O)O [DTPA, diethylenetriaminepentaacetic acid, reference compound]
238Pu excretion path (female and male mice): through urine | ^238Pu excretion, Total Excretion, Avg [1]: 72.13 percent recovered dose | ^238Pu excretion, Total Feces, Avg [1]: 30.20 percent recovered dose | ^238Pu excretion, Total Urine, Avg [1]: 41.93 percent recovered dose | ^238Pu retention, GI Tract, Avg [1]: 0.54 percent recovered dose | ^238Pu retention, Kidney, Avg [1]: 0.13 percent recovered dose | ^238Pu retention, Liver, Avg [1]: 4.14 percent recovered dose | ^238Pu retention, Soft Tissue, Avg [1]: 1.66 percent recovered dose | ^238Pu retention, Total Body, Avg [1]: 27.87 percent recovered dose | ^238Pu retention, Total Bone, Avg [1]: 21.40 percent recovered dose | ^238Pu percent increase in excretion, Total Excretion [2]: 143.34% | ^238Pu percent increase in excretion, Total Feces [2]: 106.02% | ^238Pu percent increase in excretion, Total Urine [2]: 192.03% | ^238Pu percent tissue reduction, GI Tract [3]: 59.99% | ^238Pu percent tissue reduction, Kidney [3]: 51.24% | ^238Pu percent tissue reduction, Liver [3]: 65.62% | ^238Pu percent tissue reduction, Soft Tissue [3]: 41.56% | ^238Pu percent tissue reduction, Total Body [3]: 43.90% | ^238Pu percent tissue reduction, Total Bone [3]: 35.51% | tissue content of 238Pu compared to saline control group (female): large reductions | % Recovered Dose Combined Body [4]: 31.58% and 24.29% and 33.79% and 30.93% and 32.00% and 29.03% and 23.14% and 27.41% | % Recovered Dose Combined Excreta [4]: 68.42% and 74.71% and 66.21% and 69.07% and 68.00% and 70.97% and 76.86% and 72.59% | % Recovered Dose GI Tract [4]: 1.75% and 0.46% and 0.91% and 0.70% and 0.71% and 0.57% and 0.52% and 0.47% | % Recovered Dose Kidney [4]: 0.14% and 0.28% and 0.20% and 0.21% and 0.11% and 0.15% and 0.17% | % Recovered Dose Liver [4]: 5.98% and 3.55% and 5.50% and 4.81% and 4.85% and 4.26% and 4.33% and 4.96% | % Recovered Dose Soft Tissue [4]: 2.40% and 1.47% and 2.34% and 2.95% and 2.10% and 1.91% and 1.81% and 1.44% | % Recovered Dose Total Bone [4]: 21.31% and 18.54% and 24.85% and 22.27% and 24.22% and 22.15% and 16.34% and 20.37% | % Recovered Dose Urine per Day, Day 2 [5]: 7.92% and 8.51% and 7.65% and 2.69% and 6.20% and 7.54% and 5.46% and 8.58% | % Recovered Dose Urine per Day, Day 3 [5]: 3.90% and 4.79% and 4.05% and 2.57% and 3.66% and 4.86% and 4.80% and 5.85% | % Recovered Dose Urine per Day, Day 4 [5]: 3.05% and 3.34% and 2.72% and 0.84% and 2.10% and 3.61% and 2.55% and 2.58% | % Recovered Dose Urine per Day, Day 5 [5]: 1.94% and 1.91% and 2.47% and 1.16% and 1.62% and 3.01% and 2.10% and 2.23% | % Recovered Dose Urine per Day, Day 6 [5]: 1.36% and 1.21% and 1.73% and 0.80% and 1.18% and 1.69% and 1.57% and 1.37% | % Recovered Dose Urine per Day, Day 7 [5]: 1.74% and 1.68% and 1.50% and 1.67% and 1.63% and 1.84% and 1.87% and 1.77% | % Recovered Dose Urine per Day, Day 8 [5]: 0.96% and 0.76% and 0.90% and 0.53% and 0.64% and 0.85% and 1.18% and 0.65% | % Recovered Dose Urine per Day, Day 9 [5]: 0.92% and 0.50% and 1.01% and 0.62% and 0.49% and 0.72% and 0.87% and 0.69% | % Recovered Dose Urine per Day, Day 10 [5]: 0.35% and 0.32% and 0.27% and 0.21% and 0.49% and 0.38% | % Recovered Dose Urine per Day, Day 11 [5]: 0.20% and 0.84% and 0.25% and 0.28% and 0.33% and 0.44% and 0.55% and 0.31% | % Recovered Dose - Feces per Day (male mice, feces day 2, Day 11 necropsy): 2.78% and 4.90% and 1.40% and 7.06% and 3.40% and 6.60% and 7.14% and 5.64% | % Recovered Dose - Feces per Day (male mice, feces day 3, Day 11 necropsy): 3.63% and 6.69% and 4.80% and 10.31% and 4.70% and 6.91% and 8.25% and 7.45% | % Recovered Dose - Feces per Day (male mice, feces day 4, Day 11 necropsy): 3.78% and 4.47% and 3.18% and 7.97% and 3.38% and 4.66% and 5.75% and 4.65% | % Recovered Dose - Feces per Day (male mice, feces day 5, Day 11 necropsy): 1.51% and 1.78% and 1.71% and 3.62% and 1.81% and 1.45% and 2.38% and 1.92% | % Recovered Dose - Feces per Day (male mice, feces day 6, Day 11 necropsy): 1.64% and 2.00% and 2.45% and 2.79% and 1.57% and 1.96% and 1.83% and 1.74% | % Recovered Dose - Feces per Day (male mice, feces day 7, Day 11 necropsy): 1.05% and 1.04% and 1.03% and 2.05% and 1.28% and 0.78% and 1.36% and 3.81% | % Recovered Dose - Feces per Day (male mice, feces day 8, Day 11 necropsy): 0.81% and 0.75% and 1.29% and 1.70% and 0.85% and 0.78% and 1.19% and 1.40% | % Recovered Dose - Feces per Day (male mice, feces day 9, Day 11 necropsy): 0.43% and 0.51% and 0.65% and 1.29% and 0.58% and 0.39% and 0.64% and 0.87% | % Recovered Dose - Feces per Day (male mice, feces day 10, Day 11 necropsy): 0.38% and 0.40% and 0.33% and 0.79% and 0.42% and 0.30% and 0.52% and 0.68% | % Recovered Dose - Feces per Day (male mice, feces day 11, Day 11 necropsy): 0.37% and 0.35% and 0.40% and 0.78% and 0.36% and 0.30% and 0.52% and 0.77% | ^238Pu excretion, Total Excretion, Avg [6]: 70.98 percent recovered dose | ^238Pu excretion, Total Feces, Avg [6]: 35.89 percent recovered dose | ^238Pu excretion, Total Urine, Avg [6]: 35.09 percent recovered dose | ^238Pu retention, GI Tract, Avg [6]: 0.76 percent recovered dose | ^238Pu retention, Kidney, Avg [6]: 0.17 percent recovered dose | ^238Pu retention, Liver, Avg [6]: 4.78 percent recovered dose | ^238Pu retention, Soft Tissue, Avg [6]: 2.05 percent recovered dose | ^238Pu retention, Total Body, Avg [6]: 29.02 percent recovered dose | ^238Pu retention, Total Bone, Avg [6]: 21.26 percent recovered dose | 238Pu percent increase in excretion, Total Excretion [7]: 149.50% | 238Pu percent increase in excretion, Total Feces [7]: 140.57% | 238Pu percent increase in excretion, Total Urine [7]: 159.88% | ^238Pu percent tissue reduction, GI Trace [8]: 61.32% | ^238Pu percent tissue reduction, Kidney [8]: 47.89% | ^238Pu percent tissue reduction, Liver [8]: 71.51% | ^238Pu percent tissue reduction, Soft Tissue [8]: 42.09% | ^238Pu percent tissue reduction, Total Body [8]: 44.74% | ^238Pu percent tissue reduction, Total Bone [8]: 28.92% | tissue content of 238Pu compared to saline control group (male): large reductions
